≈ marks a conversion by molar mass, not a printed value. Where “and” joins values, the source holds several entries; their conditions need not be identical. Equal values may be shown once.

Holding throughout (assay): microbe, parasite or virus in culture
For experiment [1], the system named is Methicillin-resistant S. aureus ATCC 43300. Here is the method:
(§1) Antimicrobial activity of compounds was tested against a number of bacterial strains by broth microdilution (BMD) assay with MIC determination, including S. aureus (MSSA ATCC® 29213™, MRSA ATCC® 43300™, VISA NARSA NRS1, VISA NARSA NRS4), Streptococcus pneumoniae (MDR ATCC® 700677™) and Enterococcus faecium (MDR VanA ATCC® 51559™). ATCC strains were sourced from the American Type Culture Collection and NRS strains from NARSA (Network on Antimicrobial Resistance in S. aureus) via BEI Resources (www.beiresources.org). All compounds were prepared to 160 µg mL^−1 solution in water from a stock solution of 1 mM concentration.
[…] […] Standards ranged from 64 to 0.03 µg mL^−1 and compounds from 8 to 0.003 µg mL^−1 with final assay volumes of 100 µL per well. Gram-positive bacteria were cultured in Mueller Hinton broth (MHB) (Bactolaboratories, Cat. no. 211443) at 37 °C overnight. A sample of each culture was then diluted 40-fold in fresh MHB and incubated at 37 °C for 2–3 h. […] All the plates were covered and incubated at 37 °C for 24 h. MICs were the lowest concentration showing no visible growth.

In experiment [2] the test system is Vancomycin-resistant (VanA) Enterococcus faecium ATCC 51559. The method, then:
as §1
(§2) The compounds, along with standard antibiotics were serially diluted twofold across the wells of 96-well non-binding surface (NBS) polystyrene plates (Corning 3641). […] Standards ranged from 64 to 0.03 µg mL^−1 and compounds from 8 to 0.003 µg mL^−1 with final assay volumes of 100 µL per well. Gram-positive bacteria were cultured in Mueller Hinton broth (MHB) (Bactolaboratories, Cat. no. 211443) at 37 °C overnight. A sample of each culture was then diluted 40-fold in fresh MHB and incubated at 37 °C for 2–3 h. […] All the plates were covered and incubated at 37 °C for 24 h. MICs were the lowest concentration showing no visible growth.

In experiment [3] the test system is Vancomycin-intermediate S. aureus NRS1. The method, then:
as §1, §2

For experiment [4], the system named is Multi-drug-resistant S. pneumoniae ATCC 700677. The method, then: as §1, §2
The test system of experiment [5] is Bacillus subtilis ATCC 6633. The experiment is classed as cell-based. Particulars: for Ac2Kaa concentration required to neutralise MIC activity / MIC: ATCC 6633, 48 h; for Molar excess of Ac2Kaa ligand required to antagonise antibacterial activity: [ligand]/[antibiotic], B. subtilis ATCC 6633, 24 h. Here is the method:
All compounds were dissolved in H2O. Bacillus subtilis ATCC® 6633™ NRS-231 was cultured in MHB at 37 °C for 48 h. A sample of each culture was then diluted 40-fold in fresh MHB and incubated at 37 °C for 18 h. Compounds were added to each row of 96-well NBS plates (NBS, Corning 3641), in duplicate. The tripeptide N,N΄-diacetyl-L-Lys-D-Ala-D-Ala was serially diluted twofold across the compound-containing wells from 6400 to 3 µg mL^−1. To this the resultant mid-log phase cultures were diluted to the final concentration of 5 × 10^5 CFU mL^−1, then added to wells of the compound-containing plates. All the plates were covered and incubated at 37 °C for 24 h.

For the molecule `CNC(=O)[C@H](CCCNC(=O)[C@H]1NC(=O)[C@H]2NC(=O)[C@H](NC(=O)[C@@H]3NC(=O)[C@H](CC(N)=O)NC(=O)[C@H](NC(=O)[C@@H](CC(C)C)NC)[C@H](O)c4ccc(c(Cl)c4)Oc4cc3cc(c4O[C@@H]3O[C@H](CO)[C@@H](O)[C@H](O)[C@H]3O[C@H]3C[C@](C)(N)[C@H](O)[C@H](C)O3)Oc3ccc(cc3Cl)[C@H]2O)c2ccc(O)c(c2)-c2c(O)cc(O)cc21)NC(=O)[C@H](CCCCN)NC(=O)[C@H](CCCCN)NC(=O)[C@H](CCCCNC(=O)c1ccc(Oc2ccccc2)cc1)NC(=O)c1ccc(Oc2ccccc2)cc1` [Compound 35, POB2K-KK-Orn(Vancomycin)-NHMe], in experiment [1] (ATCC 43300, 24 h), the “MIC MRSA” value is below 0.003 µg/mL. Also, the “MIC VRE” value in experiment [2] (ATCC 51559) was 1.25 µg/mL (≈ 0.531 µM). Besides, in experiment [3] (Vancomycin-intermediate NRS1), the “MIC VISA” value was determined as 0.25 µg/mL (≈ 0.106 µM). Besides, in experiment [4] (ATCC 700677), the “MIC MDR S.P.” value stood at 0.005 µg/mL (≈ 0.00212 µM).

Turning to `CCCCCCCCCCCCC(=O)N[C@@H](CCCCN)C(=O)N[C@@H](CCCCN)C(=O)N[C@@H](CCCCN)C(=O)N[C@@H](CCCCNC(=O)[C@H]1NC(=O)[C@H]2NC(=O)[C@H](NC(=O)[C@@H]3NC(=O)[C@H](CC(N)=O)NC(=O)[C@H](NC(=O)[C@@H](CC(C)C)NC)[C@H](O)c4ccc(c(Cl)c4)Oc4cc3cc(c4O[C@@H]3O[C@H](CO)[C@@H](O)[C@H](O)[C@H]3O[C@H]3C[C@](C)(N)[C@H](O)[C@H](C)O3)Oc3ccc(cc3Cl)[C@H]2O)c2ccc(O)c(c2)-c2c(O)cc(O)cc21)C(=O)O` [Compound 38, nC12CO-KKK-K-(Vancomycin)-OH], the “MIC MRSA” value in experiment [1] (ATCC 43300, 24 h) was below 0.003 µg/mL. Moreover, the “MIC VRE” value in experiment [2] (ATCC 51559) stood at 0.1875 µg/mL (≈ 0.0869 µM). For the same molecule, in experiment [3] (Vancomycin-intermediate NRS1), the “MIC VISA” value was determined as 0.03 µg/mL (≈ 0.0139 µM). Further, the “MIC MDR S.P.” value in experiment [4] (ATCC 700677) was below 0.003 µg/mL.

As for `CCCCCCCCCCC(=O)NCC(=O)N[C@@H](CO)C(=O)N[C@@H](CCCCN)C(=O)N[C@@H](CCCCN)C(=O)N[C@@H](CCCCN)C(=O)N[C@@H](CCCCNC(=O)[C@H]1NC(=O)[C@H]2NC(=O)[C@H](NC(=O)[C@@H]3NC(=O)[C@H](CC(N)=O)NC(=O)[C@H](NC(=O)[C@@H](CC(C)C)NC)[C@H](O)c4ccc(c(Cl)c4)Oc4cc3cc(c4O[C@@H]3O[C@H](CO)[C@@H](O)[C@H](O)[C@H]3O[C@H]3C[C@](C)(N)[C@H](O)[C@H](C)O3)Oc3ccc(cc3Cl)[C@H]2O)c2ccc(O)c(c2)-c2c(O)cc(O)cc21)C(=O)O` [Compound 39, nC10CO-GSKKK-K-(Vancomycin)-OH], in experiment [5], the “Ac2Kaa concentration required to neutralise MIC activity” value (“Ac2Kaa concentration required” for short) stood at 400 µg/mL, the MIC stood at 0.06 µg/mL (≈ 0.0264 µM) and the “Molar excess of Ac2Kaa ligand required to antagonise antibacterial activity” value (“Molar excess of Ac2Kaa ligand required” below) is 30,569.

As for `CN[C@H](CC(C)C)C(=O)N[C@H]1C(=O)N[C@@H](CC(N)=O)C(=O)N[C@H]2C(=O)N[C@H]3C(=O)N[C@H](C(=O)N[C@H](C(=O)NCCCC[C@H](NC(=O)[C@H](CCCCN)NC(=O)[C@H](CCCCN)NC(=O)[C@H](CCCCN)NC(=O)c4ccc(Oc5ccccc5)cc4)C(=O)O)c4cc(O)cc(O)c4-c4cc3ccc4O)[C@H](O)c3ccc(c(Cl)c3)Oc3cc2cc(c3O[C@@H]2O[C@H](CO)[C@@H](O)[C@H](O)[C@H]2O[C@H]2C[C@](C)(N)[C@H](O)[C@H](C)O2)Oc2ccc(cc2Cl)[C@H]1O` [Compound 40, POB-KKK-K-(Vancomycin)-OH], in experiment [5], the “Ac2Kaa concentration required” value turned out to be 12.5 µg/mL, the MIC is 0.03 µg/mL (≈ 0.0139 µM) and the “Molar excess of Ac2Kaa ligand required” value is given as 916.

As to `CN[C@H](CC(C)C)C(=O)N[C@H]1C(=O)N[C@@H](CC(N)=O)C(=O)N[C@H]2C(=O)N[C@H]3C(=O)N[C@H](C(=O)N[C@H](C(=O)NCCCC[C@H](NC(=O)[C@H](CCCCN)NC(=O)[C@H](CCCCN)NC(=O)c4ccc(Oc5ccccc5)cc4)C(=O)O)c4cc(O)cc(O)c4-c4cc3ccc4O)[C@H](O)c3ccc(c(Cl)c3)Oc3cc2cc(c3O[C@@H]2O[C@H](CO)[C@@H](O)[C@H](O)[C@H]2O[C@H]2C[C@](C)(N)[C@H](O)[C@H](C)O2)Oc2ccc(cc2Cl)[C@H]1O` [Compound 41, POB-KK-K-(Vancomycin)-OH], in experiment [5], the “Ac2Kaa concentration required” value is 1.56 µg/mL, the MIC stood at 0.06 µg/mL (≈ 0.0296 µM) and the “Molar excess of Ac2Kaa ligand required” value is reported as 104.

As for `CN[C@H](CC(C)C)C(=O)N[C@H]1C(=O)N[C@@H](CC(N)=O)C(=O)N[C@H]2C(=O)N[C@H]3C(=O)N[C@H](C(=O)N[C@H](C(=O)NCCCC[C@H](NC(=O)[C@H](CCCCN)NC(=O)[C@H](CCCCN)NC(=O)[C@H](CCCCN)NC(=O)[C@H](CCCCNC(=O)c4ccc(Oc5ccccc5)cc4)NC(=O)c4ccc(Oc5ccccc5)cc4)C(=O)O)c4cc(O)cc(O)c4-c4cc3ccc4O)[C@H](O)c3ccc(c(Cl)c3)Oc3cc2cc(c3O[C@@H]2O[C@H](CO)[C@@H](O)[C@H](O)[C@H]2O[C@H]2C[C@](C)(N)[C@H](O)[C@H](C)O2)Oc2ccc(cc2Cl)[C@H]1O` [Compound 42, POB2K-KKK-K-(Vancomycin)-OH], in experiment [5], the “Ac2Kaa concentration required” value was determined as 1600 µg/mL, the MIC is at most 0.004 µg/mL and the “Molar excess of Ac2Kaa ligand required” value is recorded as 131,225.

As for “POB2K-Dap-K-K(Vancomycin)-NHMe [Compound 28]”, the “MIC MRSA” value in experiment [1] (S. aureus ATCC 43300, NBS plates, MHB, 24 h, substance alone) is <0.003 µg/mL and 0.0045 µg/mL. For the same molecule, the “MIC VRE” value in experiment [2] (E. faecium MDR VanA ATCC 51559, substance alone) came to 0.75 µg/mL. In addition, the “MIC VISA” value in experiment [3] (S. aureus NRS1) is 0.125 µg/mL and 0.155 µg/mL. Further, in experiment [4] (S. pneumoniae ATCC 700677), the “MIC MDR S.P.” value is 0.015 µg/mL and 0.011 µg/mL.

For the origin of these results see publication PMC5750218, “Protein-inspired antibiotics active against vancomycin- and daptomycin-resistant bacteria” (Nature Communications, 2018).
